In the NIST ThermoML archive (doi:10.1016/j.jct.2012.12.019):
± gives the expanded uncertainty stated by the source.

Settings: Liquid, Closed cell (Static) method

SMILES: CCCO [propan-1-ol]
- vapor or sublimation pressure (383.2 K): 160.4 ± 3.5 kPa
- vapor or sublimation pressure (393.2 K): 223.3 ± 4.7 kPa
- vapor or sublimation pressure (403.2 K): 303.1 ± 6.3 kPa
- vapor or sublimation pressure (413.2 K): 406.6 ± 8.5 kPa
- vapor or sublimation pressure (423.2 K): 546.1 ± 11 kPa
